According to US9321804B2, “Synthesis and use of anti-tumor drug LQC-Y” (Beijing University of Chinese Medicine, priority 2011, dated 2016):
“Also recorded” adds a separate entry of the source.

Tests used:
[1] = system: small vessel growth of CAM model; test: Effect of LQC-Y on tumor angiogenesis using CAM method (small vessel count); type: in vivo, chicken; conditions: compared with the blank group
Description: Aseptic gelatin sponge, which was made into a wafer having a diameter of 5 mm by a hole-puncher in advance, was used as sample carrier. The prepared derivatives of bromotetramethylpyrazine series were added thereinto in an aseptic environment and different dosage groups were set according to the difference of the molecular weight of each medicine, including 10 μg/chicken embryo, 20 μg/chicken embryo and 40 μg/chicken embryo. The 0.9% physiological saline was used in a blank group. The samples were air-dried in an aseptic environment.
A hatching egg after disinfection was put into a 37° C. incubation box with air sac upward until the seventh day of incubation. The egg embryo was disinfected using alcohol at a super clean bench, and then a small hole was drilled at the top of the egg embryo using a dental drill, and the nearby egg shell and shell membrane were removed carefully to form a opening with the size of about 1.2 cm×1.2 cm. […]
After the incubation, the transparent tape blocking the chicken embryo air sac was softly removed with a nipper. […] The effect of the compounds on angiogenesis was evaluated by the count analytic method using the numbers of great vessels, medium vessels and small vessels arranged radially around the carrier. […]

[2] = system: Human hepatoma carcinoma cells Bel7402; test: Proliferation of human hepatoma carcinoma cells Bel7402 by MTT; type: cell-based; conditions: for 24 h inhibition ratio (%): Bel7402 cells; for inhibiting effect on the proliferation of Bel7402 cells: cultured in vitro, 10-40 μg/ml
Description: Human hepatoma carcinoma cells Bel7402 were recovered and subcultured using a culture flask. The preparation of the experiment was started when the cell growth entered into the exponential growth phase. The cells were then digested using pancreatic enzyme which had been filtrated at an increased pressure to prepare the cell suspension. After that the suspension was dyed for 3 min with 0.4% trypan blue. Then a blood cell counting plate was used to count the living cells which were not dyed and the dead cells which were dyed to blue. The number of the living cells identified by trypan blue was more than 98%.
Three kinds of cells which were in the exponential growth phase were inoculated at the density of 1×10^4/ml, to a 96-well plate, 200 μl for each well. Then the plate was put in a 37° C. 5% CO2 incubation box to be cultured for 24 h. The cultivation liquid was sucked away and 200 μl LQC-Y solutions of different concentrations were added thereinto (prepared with DMEM cultivation liquid containing 4% calf serum and the final concentration of which respectively were 10 μg, 20 μg, 40 μg), 4 parallel wells for each concentration. Supernatant cultivation liquid 100 μl was sucked away carefully from each well after being cultured for 24 h and 48 h, and MTS 20 μl was added into each well and homogeneously mixed. The resultant liquid was cultured in a 37° C. 5% CO2 incubation box for a further 1 h. An enzyme-labeling quantitative instrument was used to measure the absorbance at 492 nm. The experiment was repeated for 3 times and then an inhibition ratio was calculated.
The inhibition ratio of cell proliferation (%)=[(average OD value of control group-average OD value of the administration group)/average OD value of control group]×100%

[3] = system: S180 sarcoma of mice; test: Tumor inhibiting effect of LQC-Y2 in tumor bearing S180 mice; conditions: for Tumor inhibiting ratio (%) / Tumor weight: S180 Balb/C mice, 15 days
Description: The S180 mice that had been inoculated for 7 days were killed by breaking the neck thereof and ascites was taken from the mice respectively in an aseptic environment and the ascites was washed using RPMI1640 culture medium for 2 times and then made into a […] /ml cell suspension using aseptic physiological saline. Then the obtained S180 cell suspension was inoculated hypodermically at the right axillary of mice, 0.1 ml for each mouse and 50 mice total, to establish the solid tumor model.
60 mice were divided into 2 categories, including 6 groups, according to the random number table method, i.e. normal control group of the first category, and S180 solid tumor groups of the second category which included positive (cyclophosphamide) control group, negative control group, small dosage group, middle dosage group and large dosage group, 10 mice for each group. The experiment was repeated for 3 times.
LQC-Y2 was made into an emulsion using corn oil. The dosage of the small dosage group was 75 mg/Kg, the dosage of the middle dosage group was 150 mg/Kg, and the dosage of the large dosage group was 300 mg/kg. Equal volume of corn oil was injected into the mice of the negative control group, cyclophosphamide injection 0.02 g/(Kg.d) was injected into the mice of the positive control group. These medicines were administrated 0.1 ml per mouse by intraperitoneal injection every the other day continuously for 15 days. During this period, the common behavior, hair and excrement and so on were observed daily. The mice that had been inoculated with S180 by hypodermic inoculation were killed by breaking the necks thereof after 24 h after the last administration and the tumor, liver and spleen were then taken.
The weight of the solid tumor group mice were measured after all the administration was over and then the mice were killed. The spleens and the livers thereof were weighed by an electronic balance. The spleen index was calculated as the spleen weight of a mouse (mg)/the body weight of a mouse(g) and the liver index was calculated as the liver weight of a mouse[…]/the body weight of a mouse(g).
The solid tumor negative control group mice were weighed on the next day after the administration was finished (the eyeballs of the mice were removed to bleed and the serum was collected for subsequent experimental use). Then the mice were killed by breaking the neck thereof. The tumor tissues were taken out and weighed by an electronic balance to calculate the tumor-inhibiting ratio.
All the data were statistically analyzed using SPSS11.0 software pack. The comparison of the enumeration data was carried out with X^2 test. P<0.05 had statistical significance.

[4] = system: Human hepatoma carcinoma cells Bel7402; test: Proliferation of human hepatoma carcinoma cells Bel7402 by MTT; type: cell-based; conditions: 40 μg/ml
[5] = large dosage 300 mg/kg i.p. every other day
[6] = middle dosage 150 mg/Kg i.p. every other day
[7] = small dosage 75 mg/Kg i.p. every other day

| Structure (SMILES) | vessel growth inhibiting effect [1] | 24 h inhibition ratio (%) ([2]; 10 μg/ml) | 24 h inhibition ratio (%) ([2]; 20 μg/ml) | inhibiting effect on the proliferation of Bel7402 cells [2] | effect on the growth of the sarcoma of S180 mice ([3]; 75-300 mg/kg i.p.) | Tumor inhibiting ratio (%) [3, 5] | Tumor weight [3, 5] | Tumor inhibiting ratio (%) [3, 6] | Tumor weight [3, 6] | Tumor inhibiting ratio (%) [3, 7] | Tumor weight [3, 7] | effect on the growth of the S180 sarcoma mice's weight ([3]; mouse, in vivo) | 24 h inhibition ratio (%) [4] |
| --- | --- | --- | --- | --- | --- | --- | --- | --- | --- | --- | --- | --- | --- |
| Cc1nc(C)c(COC(=O)CCC(C)C2CCC3C4CCC5CC(O)CCC5(C)C4CC(O)C23C)nc1C (stereo not drawn) [LQC-Y2, (3,5,6-trimethyl pyrazine-2-yl)methyl-4-(3,12-dihydroxy-10,13-dimethylhexadecahydro-1H-cyclopenta[a]phenanthren-17-yl)pentanoate] | significant inhibiting effect; also recorded: magnificent inhibiting effect | 20.09% | 61.2% | evident inhibiting effect | Some Effect on Inhibiting the Growth; also recorded: inhibit the growth of S180 tumor effectively | 29.15% | 0.92 ± 0.49 g | 35.88% | 0.84 ± 0.53 g | 6.87% | 1.22 ± 0.62 g | no effect | 66.98% |
| COc1cc(/C=C/C(=O)CC(=O)/C=C/c2ccc(OCc3nc(C)c(C)nc3C)c(OC)c2)ccc1OCc1nc(C)c(C)nc1C [LQC-Y8, (1E,6E)-1,7-bis(3-methoxy-4-((3,5,6-trimethylpyrazine-2-yl)methoxy)phenyl)heptyl-1,6-diene-3,5-diketone] | significant inhibiting effect; also recorded: magnificent inhibiting effect | 39.31% | 44.58% | evident inhibiting effect | – | – | – | – | – | – | – | – | 54.07% |
